The values that follow come from article PMC9147192, “Small Molecule Arranged Thermal Proximity Coaggregation (smarTPCA)—A Novel Approach to Characterize Protein–Protein Interactions in Living Cells by Similar Isothermal Dose–Responses” (International Journal of Molecular Sciences, 2022).

The test addresses T1, RARS (Homo sapiens, UniProt P54136).
T1 construct: endogenous in cells; host or cells: HL-60 (ATCC CCL-240)
T1 sequence (P54136 1-660): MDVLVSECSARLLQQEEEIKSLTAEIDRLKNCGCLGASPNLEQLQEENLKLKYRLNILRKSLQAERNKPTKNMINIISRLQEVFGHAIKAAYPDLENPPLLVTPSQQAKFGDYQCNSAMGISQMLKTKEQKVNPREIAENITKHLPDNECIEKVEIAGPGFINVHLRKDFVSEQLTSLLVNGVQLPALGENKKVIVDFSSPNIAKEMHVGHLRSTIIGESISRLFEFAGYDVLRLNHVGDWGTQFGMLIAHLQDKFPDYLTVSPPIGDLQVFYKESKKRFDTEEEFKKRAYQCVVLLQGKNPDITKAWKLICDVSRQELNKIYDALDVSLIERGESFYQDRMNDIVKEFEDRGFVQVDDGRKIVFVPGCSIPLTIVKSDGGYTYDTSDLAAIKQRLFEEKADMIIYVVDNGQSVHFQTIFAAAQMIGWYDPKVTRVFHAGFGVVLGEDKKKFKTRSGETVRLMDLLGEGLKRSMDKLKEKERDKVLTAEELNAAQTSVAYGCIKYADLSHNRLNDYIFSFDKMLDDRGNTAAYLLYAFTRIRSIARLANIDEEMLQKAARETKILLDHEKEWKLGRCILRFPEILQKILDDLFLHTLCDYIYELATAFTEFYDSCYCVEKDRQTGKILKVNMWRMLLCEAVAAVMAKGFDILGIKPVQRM
Put plainly: TPP-CCR in living HL-60 cells. The test is classed as cell-based.

Where [1] appears, read: living HL-60 cells, […] °C, TMT-MS.

A word on the Hill slope: it is a measure of the steepness of the concentration-response curve. A word on the EC50: it is the midpoint of the concentration-response curve. Low values mean higher potency in that assay, high ones lower potency in that assay. As to `Cc1cnc(Nc2ccc(F)cc2Cl)nc1-c1c[nH]c(C(=O)N[C@H](CO)c2cccc(Cl)c2)c1` [ERK 11e], the Hill slope (TPP-CCR, living cells, RARS) was 0.38. Moreover, under setting [1], the EC50 was 83.2 nM and the “Hill slope (RARS)” value was found to be 0.38.
